Reference: ChEMBL document CHEMBL1201862, “PubChem BioAssay data set” (2004)
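In this assay, cells in 96-well plates receive the compound at five concentrations for 48 hours. Endpoints are linearly interpolated between the surrounding concentrations. GI50 = concentration required for 50% inhibition of growth.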 Active and inactive are the calls of the source. No stated cut-off is given here; in the data, active = GI50 up to about 1.1 µM and inactive = higher.

How the values were obtained:
Assay in all cases: NCI anticancer screen, dose series, 48 h
KM12 = tested on: KM12
HCT-116 = tested on: HCT-116
OVCAR-3 = tested on: OVCAR-3
ACHN = tested on: ACHN
RXF 393 = tested on: RXF 393
SK-MEL-2 = tested on: SK-MEL-2
OVCAR-5 = tested on: OVCAR-5
SK-MEL-5 = tested on: SK-MEL-5
CCRF-CEM = tested on: CCRF-CEM
SF-295 = tested on: SF-295
SNB-19 = tested on: SNB-19
UACC-62 = tested on: UACC-62
TK-10 = tested on: TK-10
NCI-H23 = tested on: NCI-H23
A549 = tested on: A549
IGROV-1 = tested on: IGROV-1
SF-539 = tested on: SF-539
UO-31 = tested on: UO-31
HCC 2998 = tested on: HCC 2998
NCI-H522 = tested on: NCI-H522

| SMILES | GI50 (KM12) | GI50 (HCT-116) | GI50 (OVCAR-3) | GI50 (ACHN) | GI50 (RXF 393) | GI50 (SK-MEL-2) | GI50 (OVCAR-5) | GI50 (SK-MEL-5) | GI50 (CCRF-CEM) | GI50 (SF-295) | GI50 (SNB-19) | GI50 (UACC-62) | GI50 (TK-10) | GI50 (NCI-H23) | GI50 (A549) | GI50 (IGROV-1) | GI50 (SF-539) | GI50 (UO-31) | GI50 (HCC 2998) | GI50 (NCI-H522) |
| --- | --- | --- | --- | --- | --- | --- | --- | --- | --- | --- | --- | --- | --- | --- | --- | --- | --- | --- | --- | --- |
| N=C(N)SCCc1ccncc1 | > 100 µM (inactive) | > 100 µM (inactive) | > 100 µM (inactive) | > 100 µM (inactive) | > 100 µM (inactive) | > 100 µM (inactive) | > 100 µM (inactive) | > 100 µM (inactive) | 65.8 µM (inactive) | > 100 µM (inactive) | > 100 µM (inactive) | > 100 µM (inactive) | > 100 µM (inactive) | > 100 µM (inactive) | > 100 µM (inactive) | > 100 µM (inactive) | > 100 µM (inactive) | > 100 µM (inactive) | – | – |
| COc1cc2c(cc1OC)C(=O)/C(=C/c1ccc(N(C)C)cc1)CC2 | > 10 µM (inactive) | > 10 µM (inactive) | > 10 µM (inactive) | > 10 µM (inactive) | > 10 µM (inactive) | 0.962 µM (active) | > 10 µM (inactive) | > 10 µM (inactive) | 9.77 µM (inactive) | > 10 µM (inactive) | > 10 µM (inactive) | > 10 µM (inactive) | > 10 µM (inactive) | > 10 µM (inactive) | > 10 µM (inactive) | > 10 µM (inactive) | > 10 µM (inactive) | > 10 µM (inactive) | > 10 µM (inactive) | – |
| COc1ccc(N2C(=O)C3c4[nH]c5c(C)cccc5c4C4CCC(C(C)C)CC4C3C2=O)cc1 (centres undefined) | 6.75 µM (inactive) | 9.73 µM (inactive) | 13.9 µM (inactive) | 13.7 µM (inactive) | – | 16.7 µM (inactive) | 14 µM (inactive) | 12 µM (inactive) | – | 14.7 µM (inactive) | 22.1 µM (inactive) | > 10 µM (inactive) | 24.4 µM (inactive) | 17.3 µM (inactive) | 5.41 µM (inactive) | 8.99 µM (inactive) | – | 11.8 µM (inactive) | 10.3 µM (inactive) | 4.51 µM (inactive) |
| O=C(NCCCOC(=O)CCCCCCCCC(=O)OCCCNC(=O)NC(=O)c1c[nH]c(=O)[nH]c1=O)NC(=O)c1c[nH]c(=O)[nH]c1=O | > 100 µM (inactive) | > 100 µM (inactive) | > 100 µM (inactive) | > 100 µM (inactive) | – | > 100 µM (inactive) | > 100 µM (inactive) | > 100 µM (inactive) | > 100 µM (inactive) | > 100 µM (inactive) | > 100 µM (inactive) | > 100 µM (inactive) | > 100 µM (inactive) | 45.1 µM (inactive) | > 100 µM (inactive) | > 100 µM (inactive) | > 100 µM (inactive) | – | > 100 µM (inactive) | – |
| CCN1CCC(O)(c2ccc(Oc3ccc(C)cc3)cc2)C(C(=O)c2ccc(Oc3ccc(C)cc3)cc2)C1 (centres undefined) | 6.37 µM (inactive) | 6.41 µM (inactive) | 16 µM (inactive) | 13.2 µM (inactive) | 2.81 µM (inactive) | 18 µM (inactive) | 13.9 µM (inactive) | 8.04 µM (inactive) | 5.13 µM (inactive) | 5.69 µM (inactive) | 14.2 µM (inactive) | 12.1 µM (inactive) | 8.61 µM (inactive) | 13.7 µM (inactive) | 12.8 µM (inactive) | 12.5 µM (inactive) | – | 3.77 µM (inactive) | 7.91 µM (inactive) | – |
| FC(F)(F)C1(Cl)C(Cl)(c2ccccc2)C1(Cl)c1ccccc1 (centres undefined) | 15.6 µM (inactive) | 11.9 µM (inactive) | 14.9 µM (inactive) | 16.1 µM (inactive) | 13.9 µM (inactive) | 15.7 µM (inactive) | 16.4 µM (inactive) | 14 µM (inactive) | 14.9 µM (inactive) | 15.8 µM (inactive) | 18.5 µM (inactive) | 15.8 µM (inactive) | 18.6 µM (inactive) | 14.3 µM (inactive) | 14.7 µM (inactive) | 12.9 µM (inactive) | 16.1 µM (inactive) | 14.8 µM (inactive) | 16.9 µM (inactive) | – |
| C/C(Cl)=N\OC(=O)Nc1ccccc1C(F)(F)F | > 100 µM (inactive) | 33.4 µM (inactive) | 15.8 µM (inactive) | 18.1 µM (inactive) | – | > 100 µM (inactive) | 42.6 µM (inactive) | > 100 µM (inactive) | 21.1 µM (inactive) | > 100 µM (inactive) | > 100 µM (inactive) | – | 15.4 µM (inactive) | > 100 µM (inactive) | > 100 µM (inactive) | > 100 µM (inactive) | > 100 µM (inactive) | 64.9 µM (inactive) | > 100 µM (inactive) | – |
| O=c1[nH]c(C2CCCCC2)nc2ccc(Cl)cc12 | > 100 µM (inactive) | > 100 µM (inactive) | > 100 µM (inactive) | > 100 µM (inactive) | > 100 µM (inactive) | > 100 µM (inactive) | > 100 µM (inactive) | > 100 µM (inactive) | – | > 100 µM (inactive) | > 100 µM (inactive) | > 100 µM (inactive) | > 100 µM (inactive) | > 100 µM (inactive) | > 100 µM (inactive) | 41.3 µM (inactive) | > 100 µM (inactive) | 93.3 µM (inactive) | > 100 µM (inactive) | – |
| COc1ccc(C(C2=C(O)COC2=O)c2cc3c(cc2O)OCO3)cc1OC (centres undefined) | > 100 µM (inactive) | > 100 µM (inactive) | > 100 µM (inactive) | > 100 µM (inactive) | > 100 µM (inactive) | > 100 µM (inactive) | > 100 µM (inactive) | > 100 µM (inactive) | > 100 µM (inactive) | > 100 µM (inactive) | > 100 µM (inactive) | > 100 µM (inactive) | > 100 µM (inactive) | – | > 100 µM (inactive) | > 100 µM (inactive) | > 100 µM (inactive) | > 100 µM (inactive) | > 100 µM (inactive) | – |
| CCN(CC)CC1CCCCCCCCCCC1=O (centres undefined) | > 100 µM (inactive) | > 100 µM (inactive) | > 100 µM (inactive) | > 100 µM (inactive) | – | > 100 µM (inactive) | > 100 µM (inactive) | > 100 µM (inactive) | > 100 µM (inactive) | > 100 µM (inactive) | > 100 µM (inactive) | > 100 µM (inactive) | > 100 µM (inactive) | > 100 µM (inactive) | > 100 µM (inactive) | > 100 µM (inactive) | – | > 100 µM (inactive) | > 100 µM (inactive) | > 100 µM (inactive) |
| CC(=O)O/N=C/c1c2ccccc2cc2ccccc12 | 61.8 µM (inactive) | 41.6 µM (inactive) | > 100 µM (inactive) | 23.8 µM (inactive) | 21.7 µM (inactive) | – | > 100 µM (inactive) | 58.9 µM (inactive) | > 100 µM (inactive) | 47.4 µM (inactive) | 50.5 µM (inactive) | 40.9 µM (inactive) | 83 µM (inactive) | 76.6 µM (inactive) | 47.9 µM (inactive) | – | 51.1 µM (inactive) | 36.2 µM (inactive) | – | – |
| CCOC(=O)C(=C=C=C(c1ccccc1)c1ccccc1)C(=O)OCC | 19.6 µM (inactive) | 18.5 µM (inactive) | 15.5 µM (inactive) | 21.4 µM (inactive) | 10.7 µM (inactive) | 16.6 µM (inactive) | 18.1 µM (inactive) | > 10 µM (inactive) | 3.52 µM (inactive) | 16.3 µM (inactive) | 21.5 µM (inactive) | 18.5 µM (inactive) | 16 µM (inactive) | 38.5 µM (inactive) | 25 µM (inactive) | 18.1 µM (inactive) | 18.4 µM (inactive) | 18.6 µM (inactive) | 25 µM (inactive) | – |
| COC(=O)C1CCCN1C(=O)OC(C)(C)C (centres undefined) | > 100 µM (inactive) | > 100 µM (inactive) | > 100 µM (inactive) | > 100 µM (inactive) | > 100 µM (inactive) | > 100 µM (inactive) | > 100 µM (inactive) | > 100 µM (inactive) | > 100 µM (inactive) | > 100 µM (inactive) | > 100 µM (inactive) | > 100 µM (inactive) | > 100 µM (inactive) | > 100 µM (inactive) | > 100 µM (inactive) | > 100 µM (inactive) | – | > 100 µM (inactive) | > 100 µM (inactive) | – |
| CC1NCCc2c1[nH]c1cc(O)ccc21 (centres undefined) | > 100 µM (inactive) | > 100 µM (inactive) | > 100 µM (inactive) | > 100 µM (inactive) | > 100 µM (inactive) | > 100 µM (inactive) | > 100 µM (inactive) | > 100 µM (inactive) | > 100 µM (inactive) | > 100 µM (inactive) | > 100 µM (inactive) | > 100 µM (inactive) | > 100 µM (inactive) | > 100 µM (inactive) | > 100 µM (inactive) | > 100 µM (inactive) | > 100 µM (inactive) | > 100 µM (inactive) | > 100 µM (inactive) | – |
| Cc1nc(C)c(C(=O)NNC(=O)C[N+](C)(C)C)cc1C(=O)NNC(=O)C[N+](C)(C)C | > 100 µM (inactive) | > 100 µM (inactive) | > 100 µM (inactive) | > 100 µM (inactive) | > 100 µM (inactive) | > 100 µM (inactive) | > 100 µM (inactive) | > 100 µM (inactive) | – | > 100 µM (inactive) | > 100 µM (inactive) | > 100 µM (inactive) | > 100 µM (inactive) | > 100 µM (inactive) | > 100 µM (inactive) | > 100 µM (inactive) | > 100 µM (inactive) | > 100 µM (inactive) | > 100 µM (inactive) | – |
